A short description of the data set: recombinant UMI read abundance after kanamycin selection (control-corrected) (log10(CPM+1)); higher = more efficient recombination; extreme values may be limits of the assay; sequences stand for … in AGTGCAGAGAAAATCGGCCAGTTTTCTCTGCCTGCAGTCCGCATGCCGTGGGACCCCTTGGGTTCTAACCTGTTGCCTAGATTTATGCAGCGGACTGCCTTTCTCCCAAAGTGATAAACCGG…AGGTTGGTTTCACT; site = the 11-nt donor. Summed up: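 Counts of recombinant UMIs were reported as log10(CPM+1). Before that, they were converted to CPM, averaged over replicates and scaled using control-derived factors. They came from PCR across the donor–target junction after Escherichia coli carrying the pair library and target plasmid was plated on IPTG (0.07 mM) plus kanamycin, or unselected, in two replicates each.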
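Also: IS621 bridge recombinase in Escherichia coli cells against a fixed T5 target plasmid.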

With “ATTGAGACATGGACCGGTTTTCCCGGTAATCCGTATTTGGT (site ATTAAGACTAC)”, the “recombinant UMI read abundance (log10)” value is 1.62.
Take “ATTGAGACATGGACCGGTTTTCCCGGTAATCCGTATTTGGT (site ATTCAGACTAC)”: the “recombinant UMI read abundance (log10)” value was found to be 0.296.
“ATTGAGACATGGACCGGTTTTCCCGGTAATCCGTATTTGGT (site ATTGAAACTAC)”: the “recombinant UMI read abundance (log10)” value is 1.88.
For “ATTGAGACATGGACCGGTTTTCCCGGTAATCCGTATTTGGT (site ATTGACACTAC)”, the “recombinant UMI read abundance (log10)” value worked out at 0.0545.
“ATTGAGACATGGACCGGTTTTCCCGGTAATCCGTATTTGGT (site ATTGAGACTAA)”: the “recombinant UMI read abundance (log10)” value is 0.949.
With “ATTGAGACATGGACCGGTTTTCCCGGTAATCCGTATTTGGT (site ATTGAGACTAC)”, the “recombinant UMI read abundance (log10)” value was 1.39.
For “ATTGAGACATGGACCGGTTTTCCCGGTAATCCGTATTTGGT (site ATTGAGACTAG)”, the “recombinant UMI read abundance (log10)” value amounted to 0.772.
Turning to “ATTGAGACATGGACCGGTTTTCCCGGTAATCCGTATTTGGT (site ATTGAGACTAT)”, the “recombinant UMI read abundance (log10)” value was 1.17.
Take “ATTGAGACATGGACCGGTTTTCCCGGTAATCCGTATTTGGT (site ATTGAGACTCC)”: the “recombinant UMI read abundance (log10)” value amounted to 0.379.
Consider “ATTGAGACATGGACCGGTTTTCCCGGTAATCCGTATTTGGT (site ATTGAGACTGC)”, for which the “recombinant UMI read abundance (log10)” value was found to be 0.953.
As for “ATTGAGACATGGACCGGTTTTCCCGGTAATCCGTATTTGGT (site ATTGAGACTTC)”, the “recombinant UMI read abundance (log10)” value turned out to be 0.0155.
On to “ATTGAGACATGGACCGGTTTTCCCGGTAATCCGTATTTGGT (site ATTGAGCCTAC)”, for which the “recombinant UMI read abundance (log10)” value stood at 0.0258.
Turning to “ATTGAGACATGGACCGGTTTTCCCGGTAATCCGTATTTGGT (site ATTGAGGCTAC)”, the “recombinant UMI read abundance (log10)” value worked out at 0.186.
As for “ATTGAGACATGGACCGGTTTTCCCGGTAATCCGTATTTGGT (site ATTGAGTCTAC)”, the figure is 1.06; as for “ATTGAGACATGGACCGGTTTTCCCGGTAATCCGTATTTGGT (site ATTGATACTAC)”, 0.512.
In the case of “ATTGAGACATGGACCGGTTTTCCCGGTAATCCGTATTTGGT (site ATTGCGACTAC)”, the “recombinant UMI read abundance (log10)” value was 0.151.
“ATTGAGACATGGACCGGTTTTCCCGGTAATCCGTATTTGGT (site ATTGGGACTAC)”: the “recombinant UMI read abundance (log10)” value is 0.407.
For “ATTGAGACATGGACCGGTTTTCCCGGTAATCCGTATTTGGT (site ATTGTGACTAC)”, the “recombinant UMI read abundance (log10)” value came to 0.471.
As to “ATTGAGACATGGACCGGTTTTCCCGGTAATCCGTATTTGGT (site ATTTAGACTAC)”, the “recombinant UMI read abundance (log10)” value is 0.353.
As for “ATTGAGACATGGACCGGTTTTCCCGGTAATCCGTATTTGGT (site CTTGAGACTAC)”, the figure is 0.935; as for “ATTGAGACATGGACCGGTTTTCCCGGTAATCCGTATTTGGT (site GTTGAGACTAC)”, 0.235.
For the sequence “ATTGAGACATGGACCGGTTTTCCCGGTAATCCGTATTTGGT (site TTTGAGACTAC)”, the “recombinant UMI read abundance (log10)” value amounted to 0.435.
Take “ATTGATACATGGACCGGTTTTCCCGGTAATCCGTATTTGGT (site ATTGAAACTAC)”: the “recombinant UMI read abundance (log10)” value was 0.445.
For the sequence “ATTGATACATGGACCGGTTTTCCCGGTAATCCGTATTTGGT (site ATTGACACTAC)”, the “recombinant UMI read abundance (log10)” value is 0.179.
As to “ATTGATACATGGACCGGTTTTCCCGGTAATCCGTATTTGGT (site ATTGAGACTAC)”, the “recombinant UMI read abundance (log10)” value was 0.00596.
In the case of “ATTGATACATGGACCGGTTTTCCCGGTAATCCGTATTTGGT (site ATTGATACTAC)”, the “recombinant UMI read abundance (log10)” value is 1.33.
With “ATTGCAACATGGACCGGTTTTCCCGGTAATCCGTATTTGGG (site ATTGCAACTCC)”, the “recombinant UMI read abundance (log10)” value worked out at 0.0185.
Turning to “ATTGCCCCATGGACCGGTTTTCCCGGTAATCCGTATTTGTC (site ATTGCCCCTGA)”, the “recombinant UMI read abundance (log10)” value turned out to be 0.
With “ATTGCGGCATGGACCGGTTTTCCCGGTAATCCGTATTTGCT (site ATTGCGGCTAG)”, the “recombinant UMI read abundance (log10)” value was 1.27.
As for “ATTGCGGCATGGACCGGTTTTCCCGGTAATCCGTATTTGCT (site CTTGCGGCTAG)”, the “recombinant UMI read abundance (log10)” value amounted to 0.161.
As for “ATTGCGGCATGGACCGGTTTTCCCGGTAATCCGTATTTGCT (site GTTGCGGCTAG)”, the figure is 0.0081.
Regarding “ATTGCGGCATGGACCGGTTTTCCCGGTAATCCGTATTTGCT (site TTTGCGGCTAG)”, the “recombinant UMI read abundance (log10)” value was found to be 0.371.
On to “ATTGCGGCATGGACCGGTTTTCCCGGTAATCCGTATTTGGG (site ATTGCGGCTCC)”, for which the “recombinant UMI read abundance (log10)” value amounted to 0.0219.
Take “ATTGGTACATGGACCGGTTTTCCCGGTAATCCGTATTTGCG (site ATTGGTACTCG)”: the “recombinant UMI read abundance (log10)” value was found to be 1.35.
The result for “ATTGTGACATGGACCGGTTTTCCCGGTAATCCGTATTTGGT (site ATTGAGACTAC)” reads 0.524; that for “ATTGTGACATGGACCGGTTTTCCCGGTAATCCGTATTTGGT (site ATTGCGACTAC)”, 0.0121; that for “ATTGTGACATGGACCGGTTTTCCCGGTAATCCGTATTTGGT (site ATTGGGACTAC)”, 0.0143.
As to “ATTGTGACATGGACCGGTTTTCCCGGTAATCCGTATTTGGT (site ATTGTGACTAC)”, the “recombinant UMI read abundance (log10)” value worked out at 0.925.
For “ATTGTTCCATGGACCGGTTTTCCCGGTAATCCGTATTTGGT (site ATTGTTCCTAC)”, the “recombinant UMI read abundance (log10)” value was determined as 0.
As to “ATTGTTCCATGGACCGGTTTTCCCGGTAATCCGTATTTGGT (site CTTGTTCCTAC)”, the “recombinant UMI read abundance (log10)” value amounted to 0.
For the sequence “ATTGTTCCATGGACCGGTTTTCCCGGTAATCCGTATTTGGT (site GTTGTTCCTAC)”, the “recombinant UMI read abundance (log10)” value came to 0.00837.
The result for “ATTGTTCCATGGACCGGTTTTCCCGGTAATCCGTATTTGGT (site TTTGTTCCTAC)” reads 0.331; that for “ATTTACACATGGACCGGTTTTCCCGGTAATCCGTATTTGTT (site ATTTACACTAA)”, 0.967.
As for “ATTTATGCATGGACCGGTTTTCCCGGTAATCCGTATTTGGA (site AATTATGCTTC)”, the figure is 0.379; as for “ATTTATGCATGGACCGGTTTTCCCGGTAATCCGTATTTGGA (site ACTTATGCTTC)”, 1.06.
For the sequence “ATTTATGCATGGACCGGTTTTCCCGGTAATCCGTATTTGGA (site AGTTATGCTTC)”, the “recombinant UMI read abundance (log10)” value came to 0.744.
On to “ATTTATGCATGGACCGGTTTTCCCGGTAATCCGTATTTGGA (site ATTTATGCTTC)”, for which the “recombinant UMI read abundance (log10)” value was determined as 0.0921.
The result for “CAAAACACATGGACCGGTTTTCCCGGTAATCCGTATTTGCC (site CAAAACACTGG)” reads 0.
As to “CAAACATCATGGACCGGTTTTCCCGGTAATCCGTATTTGTA (site CAAACATCTTA)”, the “recombinant UMI read abundance (log10)” value amounted to 2.53.
Consider “CAAATCACATGGACCGGTTTTCCCGGTAATCCGTATTTGGG (site CAAATCACTCC)”, for which the “recombinant UMI read abundance (log10)” value amounted to 0.288.
Consider “CAAATCACATGGACCGGTTTTCCCGGTAATCCGTATTTGGG (site CAACTCACTCC)”, for which the “recombinant UMI read abundance (log10)” value is 0.02.
Regarding “CAAATCACATGGACCGGTTTTCCCGGTAATCCGTATTTGGG (site CAAGTCACTCC)”, the “recombinant UMI read abundance (log10)” value worked out at 0.00775.
Regarding “CAAATCACATGGACCGGTTTTCCCGGTAATCCGTATTTGGG (site CAATTCACTCC)”, the “recombinant UMI read abundance (log10)” value amounted to 0.0243.
Turning to “CAACATTCATGGACCGGTTTTCCCGGTAATCCGTATTTGCA (site CAACATTCTTG)”, the “recombinant UMI read abundance (log10)” value was determined as 2.5.
For the sequence “CAACCCGCATGGACCGGTTTTCCCGGTAATCCGTATTTGTT (site CAACCCGCTAA)”, the “recombinant UMI read abundance (log10)” value stood at 1.49.
“CAACTCACATGGACCGGTTTTCCCGGTAATCCGTATTTGGG (site CAAATCACTCC)”: the “recombinant UMI read abundance (log10)” value worked out at 0.0187.
Regarding “CAACTCACATGGACCGGTTTTCCCGGTAATCCGTATTTGGG (site CAACTCACTCC)”, the “recombinant UMI read abundance (log10)” value was determined as 0.0233.
Consider “CAACTCACATGGACCGGTTTTCCCGGTAATCCGTATTTGGG (site CAAGTCACTCC)”, for which the “recombinant UMI read abundance (log10)” value turned out to be 0.00719.
As for “CAACTCACATGGACCGGTTTTCCCGGTAATCCGTATTTGGG (site CAATTCACTCC)”, the figure is 0.013.
For “CAACTGACATGGACCGGTTTTCCCGGTAATCCGTATTTGCT (site CAACTGACTAG)”, the “recombinant UMI read abundance (log10)” value worked out at 2.48.
Regarding “CAAGAGACATGGACCGGTTTTCCCGGTAATCCGTATTTGCG (site CAAGAGACTCG)”, the “recombinant UMI read abundance (log10)” value was 3.11.
As for “CAAGAGCCATGGACCGGTTTTCCCGGTAATCCGTATTTGGG (site CAAGAGCCTCC)”, the figure is 0.00368.
For “CAAGCAGCATGGACCGGTTTTCCCGGTAATCCGTATTTGAT (site CAAGCAGCTAA)”, the “recombinant UMI read abundance (log10)” value was 0.982.
Consider “CAAGCAGCATGGACCGGTTTTCCCGGTAATCCGTATTTGAT (site CAAGCAGCTAC)”, for which the “recombinant UMI read abundance (log10)” value was 0.271.
As for “CAAGCAGCATGGACCGGTTTTCCCGGTAATCCGTATTTGAT (site CAAGCAGCTAG)”, the figure is 0.784; as for “CAAGCAGCATGGACCGGTTTTCCCGGTAATCCGTATTTGAT (site CAAGCAGCTAT)”, 2.44; as for “CAAGCAGCATGGACCGGTTTTCCCGGTAATCCGTATTTGCG (site CAAGCAGCTAG)”, 1.9.
The result for “CAAGCAGCATGGACCGGTTTTCCCGGTAATCCGTATTTGCG (site CAAGCAGCTCG)” reads 1.81.
